Tests used:
Test in all cases: relative viability (nuclei count vs DMSO), 5 days (fraction); higher = more cells survive
[1] = test system: 201T
Procedure, shortened: (§1)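 Nuclei were stained with Hoechst during a one-step fixation (final 0.05% Triton X-100, 1% formaldehyde, 1 ug/ml Hoechst) carried out 5 days after dosing, then counted on 4× images. The cells, lung cancer lines in 1536-well plates, had been dosed by pin tool the day after seeding with one drug alone or a fixed anchor-drug dose plus five library-drug doses (not always all listed) in √10 steps. Relative viability is the nuclei count in treated wells divided by that in vehicle wells, and each value is the median of duplicate plates.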

[2] = test system: A-427
Procedure, shortened: as §1

[3] = test system: BEN
Procedure, shortened: as §1

[4] = test system: COR-L 105
Procedure, shortened: as §1

[5] = test system: COR-L23
Procedure, shortened: as §1

[6] = test system: EKVX
Procedure, shortened: as §1

[7] = test system: HARA
Procedure, shortened: as §1

[8] = test system: HCC-15
Procedure, shortened: as §1

[9] = test system: HCC-44
Procedure, shortened: as §1

[10] = test system: HCC-827
Procedure, shortened: as §1

[11] = test system: LK-2
Procedure, shortened: as §1

[12] = test system: NCI-H1437
Procedure, shortened: as §1

[13] = test system: NCI-H1666
Procedure, shortened: as §1

[14] = test system: NCI-H1975
Procedure, shortened: as §1

[15] = test system: NCI-H23
Procedure, shortened: as §1

[16] = test system: NCI-H358
Procedure, shortened: as §1

[17] = test system: NCI-H441
Procedure, shortened: as §1

[18] = test system: NCI-H596
Procedure, shortened: as §1

[19] = test system: NCI-H650
Procedure, shortened: as §1

[20] = test system: NCI-H838
Procedure, shortened: as §1

[21] = test system: SK-MES-1
Procedure, shortened: as §1

[22] = test system: SW 900
Procedure, shortened: as §1

Compound `O=C(O)c1ccc(-c2c[nH]c3ncc(-c4ccccc4)cc23)cc1C1CCCC1` + O=C(CCCCCCC(=O)Nc1ccccc1)NO [Vorinostat] (partner 1 µM) has a relative viability ([1]; first compound 0.04 µM) of 0.949, a relative viability ([1]; first compound 0.1265 µM) of 0.963 and a relative viability ([1]; first compound 0.4 µM) of 0.952. For the same compound, the relative viability ([1]; first compound 1.265 µM) was 0.989, the relative viability ([2]; first compound 0.04 µM) was 0.822 and the relative viability ([2]; first compound 0.1265 µM) was 0.84. For the same compound, the relative viability ([2]; first compound 0.4 µM) was 0.793, the relative viability ([2]; first compound 1.265 µM) was 0.742 and the relative viability ([3]; first compound 0.04 µM) was 0.507. For the same compound, the relative viability ([3]; first compound 0.1265 µM) was 0.614, the relative viability ([3]; first compound 0.4 µM) was 0.475 and the relative viability ([3]; first compound 1.265 µM) was 0.505. It also gave a relative viability ([4]; first compound 0.04 µM) of 0.912, a relative viability ([4]; first compound 0.1265 µM) of 0.942 and a relative viability ([4]; first compound 0.4 µM) of 0.773. It also gave a relative viability ([4]; first compound 1.265 µM) of 0.921, a relative viability ([5]; first compound 0.04 µM) of 0.468 and a relative viability ([5]; first compound 0.1265 µM) of 0.403. The relative viability ([5]; first compound 0.4 µM) was 0.467, the relative viability ([5]; first compound 1.265 µM) was 0.233 and the relative viability ([6]; first compound 0.04 µM) was 0.846. It also gave a relative viability ([6]; first compound 0.1265 µM) of 0.758, a relative viability ([6]; first compound 0.4 µM) of 0.713 and a relative viability ([6]; first compound 1.265 µM) of 0.712. It also gave a relative viability ([7]; first compound 0.04 µM) of 0.558, a relative viability ([7]; first compound 0.1265 µM) of 0.49 and a relative viability ([7]; first compound 0.4 µM) of 0.568. It also gave a relative viability ([7]; first compound 1.265 µM) of 0.405, a relative viability ([8]; first compound 0.04 µM) of 0.848 and a relative viability ([8]; first compound 0.1265 µM) of 0.872. For the same compound, the relative viability ([8]; first compound 0.4 µM) was 0.834, the relative viability ([8]; first compound 1.265 µM) was 0.59 and the relative viability ([9]; first compound 0.04 µM) was 1.04. For the same compound, the relative viability ([9]; first compound 0.1265 µM) was 1.06, the relative viability ([9]; first compound 0.4 µM) was 1.02 and the relative viability ([9]; first compound 1.265 µM) was 0.971. It also gave a relative viability ([10]; first compound 0.04 µM) of 0.372, a relative viability ([10]; first compound 0.1265 µM) of 0.913 and a relative viability ([10]; first compound 0.4 µM) of 0.815. For the same compound, the relative viability ([10]; first compound 1.265 µM) was 0.75, the relative viability ([11]; first compound 0.04 µM) was 0.333 and the relative viability ([11]; first compound 0.1265 µM) was 0.311. For the same compound, the relative viability ([11]; first compound 0.4 µM) was 0.385, the relative viability ([11]; first compound 1.265 µM) was 0.199 and the relative viability ([12]; first compound 0.04 µM) was 0.842. The relative viability ([12]; first compound 0.1265 µM) was 0.814, the relative viability ([12]; first compound 0.4 µM) was 0.531 and the relative viability ([12]; first compound 1.265 µM) was 0.326. For the same compound, the relative viability ([13]; first compound 0.04 µM) was 1.04, the relative viability ([13]; first compound 0.1265 µM) was 1.02 and the relative viability ([13]; first compound 0.4 µM) was 1.08. The relative viability ([13]; first compound 1.265 µM) was 0.737, the relative viability ([14]; first compound 0.04 µM) was 0.684 and the relative viability ([14]; first compound 0.1265 µM) was 0.763. The relative viability ([14]; first compound 0.4 µM) was 0.736, the relative viability ([14]; first compound 1.265 µM) was 0.441 and the relative viability ([15]; first compound 0.04 µM) was 0.791. The relative viability ([15]; first compound 0.1265 µM) was 0.844, the relative viability ([15]; first compound 0.4 µM) was 0.588 and the relative viability ([15]; first compound 1.265 µM) was 0.575. It also gave a relative viability ([16]; first compound 0.04 µM) of 0.574, a relative viability ([16]; first compound 0.1265 µM) of 0.795 and a relative viability ([16]; first compound 0.4 µM) of 0.536. For the same compound, the relative viability ([16]; first compound 1.265 µM) was 0.229, the relative viability ([17]; first compound 0.04 µM) was 0.866 and the relative viability ([17]; first compound 0.1265 µM) was 0.837. The relative viability ([17]; first compound 0.4 µM) was 0.615, the relative viability ([17]; first compound 1.265 µM) was 0.445 and the relative viability ([18]; first compound 0.04 µM) was 0.499. It also gave a relative viability ([18]; first compound 0.1265 µM) of 0.657, a relative viability ([18]; first compound 0.4 µM) of 0.583 and a relative viability ([18]; first compound 1.265 µM) of 0.571. It also gave a relative viability ([19]; first compound 0.04 µM) of 0.48, a relative viability ([19]; first compound 0.1265 µM) of 0.394 and a relative viability ([19]; first compound 0.4 µM) of 0.413. The relative viability ([19]; first compound 1.265 µM) was 0.22, the relative viability ([20]; first compound 0.04 µM) was 0.68 and the relative viability ([20]; first compound 0.1265 µM) was 0.773. The relative viability ([20]; first compound 0.4 µM) was 0.771, the relative viability ([20]; first compound 1.265 µM) was 0.544 and the relative viability ([21]; first compound 0.04 µM) was 1.13. The relative viability ([21]; first compound 0.1265 µM) was 1.19, the relative viability ([21]; first compound 0.4 µM) was 1.27 and the relative viability ([21]; first compound 1.265 µM) was 0.876. For the same compound, the relative viability ([22]; first compound 0.04 µM) was 0.602, the relative viability ([22]; first compound 0.1265 µM) was 0.611 and the relative viability ([22]; first compound 0.4 µM) was 0.582. It also gave a relative viability ([22]; first compound 1.265 µM) of 0.437.
